Test results published in paper PMC8950477 (Pharmaceuticals, 2022).
Where two headings read alike, the source gives them in different places.

Tests used:
K562 cells = assay: K562 cell viability assay (resazurin); format: cell-based, human; details: for CC50: Homo sapiens, K562 cells, concentration-response curve
Experimental: The assays were performed on two cell lines, as described below. […] The K562 strain was grown in RPMI-1640 medium (R8758, Sigma-Aldrich, St. Louis, MO, USA) according to the provider’s recommendations and the literature [27, 28]. […] The media were supplemented with 10% fetal bovine serum (FBS) and 50 μg/mL gentamicin. All cell lines were grown in a cell culture bottle with a 0.22 μm pore membrane filter on the lid, allowing the circulation of CO2. […] All strains were maintained at 35 °C, at 5% CO2.
For the evaluation of the cytotoxic actions of the synthesized compounds, resazurin (Sigma-Aldrich) was used at a concentration of 0.1 mg/mL.
Standardization of this assay was not carried out in this project; thus, the following ideal values were used for the execution of the experiment: quantity of cells of 2 × 10^4 cell/mL, incubation time with the compounds of 48 h, incubation time with resazurin of one hour and DMSO used within the limit of 0.5%. As the cells grew in suspension, a long incubation period for adherence was not necessary. After plating, the cells were incubated for one hour, and then the prepared compounds were added and incubated for 47 h. After this period, resazurin was added at a final concentration per well of 0.01 mg/mL, and the first fluorescence reading (λex = 560 nm; λex = 590 nm) (zero time) was performed immediately using FlexStation 3 microplates (Molecular Devices). After the first reading, the plate was returned to the incubator, and after one hour, the second reading was performed, completing 48 h of incubation with the compounds. The compounds were solubilized in DMSO (Sigma-Aldrich) at concentrations ranging from 16.66 to 50 mM and maintained at −30 °C.
Analyses of the data obtained and graph construction were performed with the aid of GraphPad Prism 6 software (GraphPad Software Inc., San Diego, CA, USA).

[1] = WSS-1 cell viability assay (resazurin); format: cell-based; details: human, WSS-1 cells (renal epithelium, adenovirus 5 transformed), concentration-response curve
Experimental: The assays were performed on two cell lines, as described below. […] WSS-1 (ATCC® CRL2029 ™): the cells used in this work were a healthy human cell line obtained from the renal epithelium of a fetus and transformed with adenovirus 5 DNA (ATCC: The Global Bioresource Center c). […] WSS-1 cells were cultured in high-glucose DMEM (Vitrocell) according to the provider’s recommendations (ATCC: The Global Bioresource Center c). The media were supplemented with 10% fetal bovine serum (FBS) and 50 μg/mL gentamicin. All cell lines were grown in a cell culture bottle with a 0.22 μm pore membrane filter on the lid, allowing the circulation of CO2. WSS-1 cells grew adherently, while cells of the K562 strain grew in suspension. All strains were maintained at 35 °C, at 5% CO2. In addition, all cell lines were routinely evaluated before freezing for storage in liquid nitrogen in the vapor phase for the detection of mycoplasma.
For the evaluation of the cytotoxic actions of the synthesized compounds, resazurin (Sigma-Aldrich) was used at a concentration of 0.1 mg/mL. The resazurin salt (Alamar Blue®) has a blue, nonfluorescent color and can be reduced to resorufin, which is pink and highly fluorescent. This process is an indicator of cell proliferation and fluorescent/colorimetric cytotoxicity with redox properties.
The first step of this assay consisted of plating the cells, with 5 × 10^4 cells per well. In this experiment, black plates with transparent bottoms and 96 wells (Greiner Bio-One) were used, and after plating, the cells were returned to the incubator for a period of approximately 20 h to allow growth and cell adhesion. The next step consisted of adding the obtained compounds, followed by incubation for a period of 46 h. Then, resazurin was added at a final concentration per well of 0.01 mg/mL, and immediately, the first fluorescence reading (λex = 560 nm; λex = 590 nm) (zero time) was performed using a FlexStation 3 microplate reader (Molecular Devices). After the first reading, the plate was returned to the incubator, and after two hours, the second reading was performed, completing 48 h of incubation with the compounds. As a negative control, cells treated with DMSO at a concentration of 0.5% instead of the obtained compounds were used. […] Preliminary screening of the compounds was carried out at fixed concentrations (1 and 10 μM) in triplicate. […] It should be noted that each experiment was carried out at least in duplicate. The fluorescence value at time zero (time immediately after the addition of resazurin) in each well was subtracted from the values obtained after two hours of incubation with resazurin. The average value with zero-time subtraction was used as 100% cell viability and was applied to calculate the percentage of cell viability in each well. […]

[2] = Solubility observed during concentration-response curve; format: physicochemical; details: in the cell assay concentration-response curve
Experimental: Subsequently, a concentration-response curve was constructed for compounds 2g and 2h.

[3] = 48 h incubation, resazurin, read-out: CC50 K562
[4] = WSS-1 cells, unit inferred, read-out: CC50 WSS1 (Figure 5)
[5] = WSS-1 healthy cells, 48 h incubation, resazurin, read-out: CC50 WSS-1
[6] = unit inferred, read-out: CC50 K562 (Figure 5)

With Cc1ccc(-n2cc(CCCOc3ccnc4cc(Cl)ccc34)nn2)cc1Nc1nccc(-c2cccnc2)n1 [3b, N-(5-(4-(3-((7-Chloroquinolin-4-yl)oxy)propyl)-1H-1,2,3-triazol-1-yl)-2-methylphenyl)-4-(pyridin-3-yl)pyrimidin-2-amine] as the compound, how does the melting point read?
The melting point was 107 to 108 °C.

For Cc1ccc(NC(=O)Cn2cc(CCCOc3ccnc4cc(Cl)ccc34)nn2)cc1Nc1nccc(-c2cccnc2)n1 [4b, 2-(4-(3-((7-Chloroquinolin-4-yl)oxy)propyl)-1H-1,2,3-triazol-1-yl)-N-(4-methyl-3-((4-(pyridin-3-yl)pyrimidin-2-yl)amino)phenyl)acetamide], which melting point is on record?
Its melting point is 145 to 146 °C.

Which melting point does the source give for Cc1ccc(-n2cc(COc3ccnc4cc(Cl)ccc34)nn2)cc1Nc1nccc(-c2cccnc2)n1 [3a, N-(5-(4-(((7-Chloroquinolin-4-yl)oxy)methyl)-1H-1,2,3-triazol-1-yl)-2-methylphenyl)-4-(pyridin-3-yl)pyrimidin-2-amine] here?
Its melting point is 187 to 188 °C.

With Cc1ccc(NC(=O)c2ccc(CN3CCN(C)CC3)cc2)cc1Nc1nccc(-c2cccnc2)n1 [IMT, Imatinib, reference compound] as the compound, how does the CC50 (K562 cells; [3]) read?
The CC50 was 80 nM.

Which results are given for Cc1ccc(Nc2ccc3cccc(Cl)c3n2)cc1Nc1nccc(-c2cccnc2)n1 [2h, N^1-(8-Chloroquinolin-2-yl)-4-methyl-N^3-(4-(pyridin-3-yl)pyrimidin-2-yl)benzene-1,3-diamine]?
CC50 at 48 h [1, 4]: 4920 nM; CC50 at 48 h [1, 5]: 4900 nM; melting point: 237 to 239 °C; solubility [2]: low solubility at concentrations above 30 μM; CC50 (K562 cells; [3]): 6200 nM; CC50 (K562 cells; [6]): 6250 nM

For Cc1ccc(Nc2ccnc3ccccc23)cc1Nc1nccc(-c2cccnc2)n1 [2g, 4-Methyl-N^3-(4-(pyridin-3-yl)pyrimidin-2-yl)-N^1-(quinolin-4-yl)benzene-1,3-diamine], which CC50 at 48 h [1, 4] is on record?
The CC50 at 48 h was 215 nM.

And the CC50 at 48 h [1, 5]?
Its CC50 at 48 h is 200 nM.

And the melting point?
The melting point was 153 to 157 °C.

And the CC50 (K562 cells; [3])?
The CC50 was 900 nM.

And the CC50 (K562 cells; [6])?
The CC50 was 874 nM.

What about the “percentage of cell viability inhibition” value (K562 cells; K562 screening at 10 µM (Figure 4)) of the same compound?
The value was “higher percentage of cell viability inhibition than IMT and BST”.

For CCOC(=O)c1cnc2ccccc2c1Nc1ccc(C)c(Nc2nccc(-c3cccnc3)n2)c1 [2e, Ethyl 4-((4-methyl-3-((4-(pyridin-3-yl)pyrimidin-2-yl)amino)phenyl)amino)quinoline-3-carboxylate], which melting point is on record?
Its melting point is 208 to 211 °C.

With Cc1ccc(NC(=O)Cn2cc(COc3ccnc4cc(Cl)ccc34)nn2)cc1Nc1nccc(-c2cccnc2)n1 [4a, 2-(4-(((7-Chloroquinolin-4-yl)oxy)methyl)-1H-1,2,3-triazol-1-yl)-N-(4-methyl-3-((4-(pyridin-3-yl)pyrimidin-2-yl)amino)phenyl)acetamide] as the compound, how does the melting point read?
The melting point was 245 to 247 °C.
